“Also recorded” adds a separate entry of the source.
Assays:
[1] = target: T1, human Histamine H3 receptor (Homo sapiens, UniProt Q9Y5N1); assay: Cloned human H3 receptor binding assay
T1 construct: expressed in transfected cells
Description: (§1) CHO cells were stably transfected with an expression plasmid pCineohH1, pCineohH2, pCineohH3 and pCineohH4 encoding the human Histamine H1, H2, H3 or H4 receptor, respectively. Recombinant cell lines were harvested after confluent growth, homogenized in ice-cold 50 mM Na2/potassium phosphate buffer (pH 7.4) and used for radioligand binding studies. Cell homogenates (40-50 μg of protein) were incubated for 30 min at 25° C. in 50 mM Na2/potassium phosphate buffer (pH 7.4) in 400 μl with the various concentrations of either [^3H]-mepyramine, [^3H]-thiotidine, [^3H]-R-a-Methylhistamine, and [^3H]-pyramilamine for cells expressing recombinant human H1, H2, H3 and H4 receptors, respectively. The nonspecific binding was defined in the presence of 1 μM mianserin. […] The incubations were stopped by rapid dilution with 3 ml of ice-cold 50 mM Na2/potassium phosphate buffer (pH 7.4). […] Filters were washed twice in 3 ml of buffer and radioactivity retained on the filters was measured by liquid scintillation counting.
(§2) EC80 values were calculated from corresponding dose-response experiment using 5-HT, histamine, epinephrine (alpha 1A adrenergic receptor), dopamine (D2 dopaminergic receptor), and acetylcholine (M1 muscarinic receptor) as agonists.

[2] = system: plasma protein extravasation at the blood vessels within the Dura mater after mCPP application; assay: mCPP model in guinea pigs: plasma protein extravasation (EvansBlue); assay type: in vivo; conditions: for Plasma protein extravasation as EvansBlue extinction at 600 nm: 2 min before 1 μg/kg mCPP, guinea pig dura mater
Description: In accordance to the protocol published by Markowitz et. al; (1987) and Olesen et. al; (2000), guinea pigs were used to determine the amount of plasma protein released at the blood vessels within the Dura mater after mCPP application.
2 minutes later 1 μg/kg body weight mCPP were injected and followed by the i.v. application of EvansBlue as marker for the protein plasma extravasation. 15 minutes later animals were transcranial perfused and decapitated. A defined area of the dura mater was isolated and transferred into an eppendorf tube containing 200 μl formamid. Because EvansBlue binds to plasma protein, the amount of bound marker dye is a measure of extravasation of plasma protein. Formamid dissolves EvansBlue from the protein which can be calorimetric detected and quantified at 600 nm.

[3] = target: T2, human Histamine H4 receptor (Homo sapiens, UniProt Q9H3N8); assay: Cloned human H4 receptor binding assay
T2 construct: expressed in transfected cells
Description: as §1, §2

[4] = target: T3, human Histamine H1 receptor (Homo sapiens, UniProt P35367); assay: Cloned human H1 receptor binding assay
T3 construct: expressed in transfected cells
Description: as §1, §2

human 5-HT2B receptor = target: T4, human 5-HT2B receptor (Homo sapiens, UniProt P41595); assay: Cloned human 5-HT2B receptor binding assay; conditions: 5-HT2B versus 5HT2C; listed as compound of the preferred embodiments
T4 construct: expressed in transfected cells; host or cells: HEK 293 (transient)

[5] = target: T5, human Histamine H2 receptor (Homo sapiens, UniProt P25021); assay: Cloned human H2 receptor binding assay
T5 construct: expressed in transfected cells
Description: as §1, §2

T2 sequence (Q9H3N8 whole entry): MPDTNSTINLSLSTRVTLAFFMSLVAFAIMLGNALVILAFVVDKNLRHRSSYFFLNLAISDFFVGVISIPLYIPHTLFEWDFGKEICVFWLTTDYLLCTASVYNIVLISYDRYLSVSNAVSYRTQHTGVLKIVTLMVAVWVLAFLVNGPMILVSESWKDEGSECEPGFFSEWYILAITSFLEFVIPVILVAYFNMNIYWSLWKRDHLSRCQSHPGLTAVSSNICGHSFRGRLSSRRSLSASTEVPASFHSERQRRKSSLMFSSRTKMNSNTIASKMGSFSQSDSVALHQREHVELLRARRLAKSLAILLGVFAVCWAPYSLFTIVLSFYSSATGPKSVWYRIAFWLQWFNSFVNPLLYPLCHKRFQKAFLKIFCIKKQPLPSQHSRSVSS
T1 sequence (Q9Y5N1 whole entry): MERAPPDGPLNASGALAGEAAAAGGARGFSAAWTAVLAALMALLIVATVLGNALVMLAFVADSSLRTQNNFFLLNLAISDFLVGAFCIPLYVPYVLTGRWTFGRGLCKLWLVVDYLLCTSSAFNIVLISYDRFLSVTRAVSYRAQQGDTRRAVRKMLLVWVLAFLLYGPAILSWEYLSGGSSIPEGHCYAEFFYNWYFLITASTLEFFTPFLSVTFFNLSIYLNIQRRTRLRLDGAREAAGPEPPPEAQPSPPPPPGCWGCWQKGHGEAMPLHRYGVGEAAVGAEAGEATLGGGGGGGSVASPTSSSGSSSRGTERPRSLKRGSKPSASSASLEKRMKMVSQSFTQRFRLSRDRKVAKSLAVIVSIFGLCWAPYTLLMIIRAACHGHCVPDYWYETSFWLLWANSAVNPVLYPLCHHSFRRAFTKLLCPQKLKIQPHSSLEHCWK
T5 sequence (P25021 whole entry): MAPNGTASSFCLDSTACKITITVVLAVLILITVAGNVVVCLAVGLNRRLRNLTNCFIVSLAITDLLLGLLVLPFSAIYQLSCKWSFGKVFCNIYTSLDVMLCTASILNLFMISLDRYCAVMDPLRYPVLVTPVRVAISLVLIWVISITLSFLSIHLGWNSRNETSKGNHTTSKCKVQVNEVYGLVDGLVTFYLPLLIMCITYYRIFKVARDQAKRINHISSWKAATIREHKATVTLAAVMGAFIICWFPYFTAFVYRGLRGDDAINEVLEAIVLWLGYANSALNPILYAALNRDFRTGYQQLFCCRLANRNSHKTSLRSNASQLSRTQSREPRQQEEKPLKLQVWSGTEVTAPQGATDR
T4 sequence (P41595 whole entry): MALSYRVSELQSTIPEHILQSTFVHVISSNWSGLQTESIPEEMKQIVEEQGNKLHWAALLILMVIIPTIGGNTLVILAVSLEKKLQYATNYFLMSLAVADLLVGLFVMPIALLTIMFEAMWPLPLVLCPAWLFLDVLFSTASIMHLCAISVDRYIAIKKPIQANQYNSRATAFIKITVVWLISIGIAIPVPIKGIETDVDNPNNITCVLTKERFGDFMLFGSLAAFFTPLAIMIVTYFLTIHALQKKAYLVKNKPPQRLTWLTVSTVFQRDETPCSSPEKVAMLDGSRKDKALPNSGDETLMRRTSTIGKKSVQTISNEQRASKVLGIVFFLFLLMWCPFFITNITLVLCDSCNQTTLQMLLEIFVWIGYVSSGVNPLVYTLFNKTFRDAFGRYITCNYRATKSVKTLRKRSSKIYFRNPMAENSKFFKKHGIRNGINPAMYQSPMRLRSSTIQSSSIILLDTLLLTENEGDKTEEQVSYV
T3 sequence (P35367 whole entry): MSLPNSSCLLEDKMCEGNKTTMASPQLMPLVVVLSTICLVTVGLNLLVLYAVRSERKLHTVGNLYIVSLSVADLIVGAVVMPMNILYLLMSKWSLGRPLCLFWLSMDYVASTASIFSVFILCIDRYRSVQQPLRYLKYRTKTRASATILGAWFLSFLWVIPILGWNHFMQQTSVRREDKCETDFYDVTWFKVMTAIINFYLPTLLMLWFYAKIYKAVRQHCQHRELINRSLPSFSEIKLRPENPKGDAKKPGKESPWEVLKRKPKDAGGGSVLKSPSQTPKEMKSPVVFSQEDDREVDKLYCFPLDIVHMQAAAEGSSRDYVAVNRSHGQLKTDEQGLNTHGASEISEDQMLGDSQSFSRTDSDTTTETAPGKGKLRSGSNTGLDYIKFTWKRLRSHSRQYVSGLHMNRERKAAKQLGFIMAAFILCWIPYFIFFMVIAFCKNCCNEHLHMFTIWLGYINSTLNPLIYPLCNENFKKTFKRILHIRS

Structure (SMILES): CN1CCC(=C2c3ccccc3Sc3ccccc32)CC1 [Pimethixene, 9-(N-methyl-piperidyliden-4)-thioxanthene]
- Affinity for the human H3 receptor (in words) [1]: no affinity
- pKi values H3 [1]: low activity
- Plasma protein extravasation as EvansBlue extinction at 600 nm ([2]; dose 0.001 μg/kg i.v.): 0.269 ± 0.022
- Plasma protein extravasation as EvansBlue extinction at 600 nm ([2]; dose 0.01 μg/kg i.v.): 0.157 ± 0.040
- Plasma protein extravasation as EvansBlue extinction at 600 nm ([2]; dose 0.1 μg/kg i.v.): 0.126 ± 0.028
- Affinity for the human H4 receptor (in words) [3]: no affinity
- pKi values H4 [3]: low activity
- Affinity to the human H1 receptor (in words) [4]: high affinity
- Selectivity of affinity for 5-HT2B receptor versus 5HT2C receptor (human 5-HT2B receptor): selective affinity; also recorded: much higher affinity
- Affinity for the human H2 receptor (in words) [5]: no affinity
- pKi values H2 [5]: low activity

Structure (SMILES): Clc1cccc(N2CCNCC2)c1 [mCPP]
- EvansBlue extinction, positive control (mCPP agonist) ([2]; mCPP 1 μg/kg alone, no test compound, negative control 0,130±0,024): 0,300±0,038

Structure (SMILES): CN1CCC(=C2c3ccccc3CCc3sccc32)CC1 [Pizotifen]
- Plasma protein extravasation as EvansBlue extinction at 600 nm ([2]; dose 1 μg/kg i.v.): 0.404 ± 0.025
- Plasma protein extravasation as EvansBlue extinction at 600 nm ([2]; dose 10 μg/kg i.v.): 0.144 ± 0.035
- Plasma protein extravasation as EvansBlue extinction at 600 nm ([2]; dose 100 μg/kg i.v.): 0.230 ± 0.018

Structure (SMILES): CC[C@@H](CO)NC(=O)[C@@H]1C=C2c3cccc4c3c(cn4C)C[C@H]2N(C)C1 [Methysergide]
- Plasma protein extravasation as EvansBlue extinction at 600 nm ([2]; dose 0.1 μg/kg i.v.): 0.265 ± 0.034
- Plasma protein extravasation as EvansBlue extinction at 600 nm ([2]; dose 1 μg/kg i.v.): 0.250 ± 0.027
- Plasma protein extravasation as EvansBlue extinction at 600 nm ([2]; dose 10 μg/kg i.v.): 0.228 ± 0.064
- Plasma protein extravasation as EvansBlue extinction at 600 nm ([2]; dose 100 μg/kg i.v.): 0.189 ± 0.026

Source: US20060120972A1, “9-(N-methyl-piperidyliden-4)-thioxanthene for treatment of pulmonary hypertension” (priority 2004, published 2006)
